Results on 3 compounds are retold here after patent US11505521B2 (Biothea Pharma, Inc., priority 2018, dated 2022).

Data set [1] is described as follows: physchem. As to conditions: water; for Solubility: 25±2° C. The procedure: (§1) The tests were conducted using Sartorius balances (Model SQP), a Thermo HPLC (UltiMate 3000 System, UV Wavelength: 205 nm), and Phenomenex Luna columns (5 μm C18 (2), 4.6×250 mm). The column temperature was 40° C. and the autosampler temperature was room temperature. The injection volume was 5 μL.
(§2) Mobile Phase A was prepared by weighing 4.0 g tetramethylammonium bisulfate (MERYER, Batch No. 77957139) and 1.1 sodium 1-heptasulfonate (Admas-beta, Batch No. P1343755), and transferring the materials to a flask. 2 mL of 0.1 mol/L EDTA solution (Brand: Sinopharm Chemical Reagent Co., Ltd., Batch No. 20150410) was added to the flask and the volume was adjusted to 950 mL using water. The solution was mixed and adjusted to a pH of 3.5 with 0.1N sodium hydroxide solution (Brand: Enox, Batch No. 20161201). Mobile Phase B was prepared using ethanol. The isocratic elution was used in a proportion of A/B of 85/15. The run time was 8 minutes.
A standard solution was used comprising 10 mg of the standard dissolved in 10 mL of water. The test solution solutions were prepared and water was added at 25±2° C. Every 5 minutes, the solution was sonicated for 30 seconds. The dissolution was observed within 30 minutes to make sure the solution was saturated. The solution was filtered through a 0.45 μm membrane and the solution was diluted to test.

Data set [2] can be described thus: physchem. The protocol:
The tests were conducted using Sartorius balances (Model SQP) and a potentiometric titrator (Brand: Methrom, Model No. 905 Titrando). 0.17 g of the sample was weighed and transferred into a 50 mL volumetric flask with the remainder of the volume comprising deonized water. The solution was mixed. The solution was titrated with a 0.1 mol/L NaOH solution using a pH indicator to indicate the end point.

A short description of data set [3]: physchem. As to conditions: n-octanol / pH 3.47 buffer. The procedure:
as §1, §2
A hydrogen disodium phosphate solution was prepared by weighing 7.1 g of hydrogen disodium phosphate (Brand: Sinopharm Chemical Reagent Co., Ltd., Batch No. 20150910). A citric acid solution was prepared by weighing 5.25 g of hydrated citric acid (Brand: General-Reagent, Batch No. 5949-29-1) and dissolving it in 1000 mL of water. A pH 3.47 buffer solution was prepared by adjusting the pH of the hydrogen disodium phosphate solution to 3.47 with the citric acid solution. An n-octanol buffer solution was prepared by mixing 100 mL of n-octanol (Brand: Chinasun Specialty Products Co., Ltd., Batch No. 20160601) and 100 mL of the pH 3.47 buffer solution, vibrated for 24 hours, which sat for an hour to separate the n-octanol phase and the pH 3.47 buffer phase.
10 mg of the sample was dissolved in 10 mL of the saturated n-octanol solution and mixed completely. 10 mL of the saturated pH 3.47 buffer solution was added and vortexed at 3000 r/min for 1 hour. 1 mL of solution was pipetted from the n-octanol and pH 3.47 phase after an hour. A standard solution was prepared containing 1 mg/mL of the standard in diluent. An LOQ solution was prepared from about 0.1% of the standard solution. An n-octanol phase solution was diluted with 1 mL of methanol to test. The pH 3.47 phase solution was injected directly. The partition coefficient was calculated using the following formula:
[formula] wherein Co is the equilibrium concentration of solute in oil phase, and Cw is the equilibrium concentration of solute in water phase.

The procedure of data set [4]:
The procedure for the various conditions is set forth below.
Standard: 20 mg of sample was weighed and dissolved in a 50 mL volumetric flask, diluted to the required volume with diluents, and mixed well.
Acid Degradation: 20 mg of sample was weighed and placed in a 50 mL volumetric flask. 2 mL of 2.0 mol/L HCl was added to the flask. The flask was placed in a water bath at 40° C. for 7 days.
Alkaline Degradation: 20 mg of sample was weighed and placed in a 50 mL volumetric flask. 2 mL of 0.05 mol/L NaOH was added to the flask. The flask was stored at room temperature for 24 hours.
Oxidation: 20 mg of sample was weighed and placed in a 50 mL volumetric flask. 2 mL of 10% H2O2 was added to the flask. The flask was placed in a water bath at 40° C. for 44 hours.
Thermal Degradation (solution, 80° C.): 20 mg of sample was weighed and dissolved in a 50 mL volumetric flask, diluted to the required volume with diluents, and mixed well. The flask was placed in a water bath at 80° C. for 46 hours.
Thermal Degradation (solid, 80° C.): 120 mg of sample was placed in an oven at 80° C. for 7 days.
The appearance and purity of the samples were test.

For data set [5] the following is noted: water, 25° C. The protocol: The sample was dissolved and diluted to the volume with water and mixed well. The sample was left in an oven at 25° C., and samples were collected at 0 hours, 24 hours, 48 hours, 72 hours, 96 hours, and 120 hours. The diluent (mobile phase) used for the study was prepared by mixing about 1.36 g of potassium dihydrogen orthophosphate and 1.74 g of dipotassium hydrogen orthophosphate in a 1000 mL volumetric flask, and adjusting the pH to 3.0 with orthophosphoric acid. The appearance and purity of the samples were tested.

The conditions of data set [6]: 20 mg in 20 mL water, 25° C. The procedure:
The tests were conducted using Sartorius balances (Model SQP) and a pH meter (Brand: INESA, Model No. PHS-3E). 20 mg of the sample was weighed and transferred into a 20 mL volumetric flask with the remainder of the volume comprising water. The solution was mixed. The pH meter was calibrated with pH 4.0 and pH 6.8 standard buffer solutions at 25° C.

The mark [7] stands for this setting: Acid Degradation: 2.0 mol/L HCl, 40° C., 7 days.
[8] abbreviates: Alkaline Degradation: 0.05 mol/L NaOH, room temperature, 24 hours.
[9] abbreviates: Oxidation: 10% H2O2, 40° C., 44 hours.
[10] abbreviates: Thermal Degradation (solid): 80° C., 7 days.
Where [11] appears, read: Thermal Degradation (solution): 80° C., 46 hours.

Values after ≈ are worked out from the molar mass of the structure shown. Where two headings read alike, the source gives them in different places.

As a reminder, the solubility is the dissolved amount per volume that the medium holds. Higher therefore signals a readily soluble substance. A word on the pKa: it is the pH at which an ionisable group is half protonated. Low values mean a group that gives up its proton readily, high ones a group that holds its proton tightly. A word on the LogP: it is the decadic logarithm of the partition coefficient of the neutral form, usually between octanol and water. High values mean higher lipophilicity, low ones lower lipophilicity. In data set [1] (25 °C, thermodynamic from solid), `CNC[C@H](O)c1ccc(O)c(O)c1` [epinephrine bitartrate] came in with a solubility at 30 min of 827 mg/mL. The pKa in data set [2] (deionized water) was found to be 4.2. Also, the log partition coefficient (LogP) in data set [3] (pH 3.47) is -2.95.
The term Solubility denotes the concentration that dissolves in the medium under given conditions. A low value points to a poorly soluble substance. Regarding `CNC[C@H](O)c1ccc(O)c(O)c1` [epinephrine malonate], the Appearance result in data set [4] (setting [7]) is recorded as “Colorless liquid”; in data set [4] (setting [8]), “Brown liquid”; in data set [4] (setting [9]), “Colorless liquid”; in data set [4] (Standard (no degradation)) it was “Off-white powder”; in data set [4] (setting [10]), “Off-white powder”; in data set [4] (setting [11]), “Colorless liquid”. Moreover, the Appearance result in data set [5] (0 hours), in data set [5] (24 hours), in data set [5] (48 hours), in data set [5] (72 hours), in data set [5] (96 hours) and in data set [5] (120 hours) was “Colorless liquid” in each case. The Purity in data set [4] (setting [7]) is on record as 91.96%; in data set [4] (setting [8]) it was 98.68%; in data set [4] (setting [9]), 97.04%; in data set [4] (Standard (no degradation)), 99.89%; in data set [4] (setting [10]), 99.10%; in data set [4] (setting [11]) it was 96.04%. Also, the Purity is listed as 99.97% in data set [5] (0 hours); 99.79% in data set [5] (24 hours); 99.63% in data set [5] (48 hours); 99.51% in data set [5] (72 hours); 99.42% in data set [5] (96 hours); 99.34% in data set [5] (120 hours). In addition, the “Solubility” value in data set [1] is reported as 1142.7 mg/mL (≈ 6240 mM). In data set [2] (titrated with 0.1 mol/L NaOH), this compound came in with a pKa of 5.47. Moreover, the log partition coefficient (LogP) in data set [3] is given as −3.00.
Consider epinephrine maleate, for which the “Solubility” value in data set [1] came to 82.7 mg/mL. Besides, in data set [6], the pH is 4.48. This compound yielded a pKa in data set [2] (titrated with 0.1 mol/L NaOH) of 6.12. Besides, the LogP in data set [3] is reported as −3.01.
